The results in this text go back to US20190263818A1 (LifeSci Pharmaceuticals, Inc., priority 2015, published 2019).

In general, IC50 refers to the concentration that gives 50% inhibition.

Where only a bound is given, the exact number is not on record here.

In the assay the target is T1, human plasma kallikrein (Homo sapiens, UniProt P03952).
T1 construct: purchased Abcam
T1 sequence (P03952 391-638 limits assumed): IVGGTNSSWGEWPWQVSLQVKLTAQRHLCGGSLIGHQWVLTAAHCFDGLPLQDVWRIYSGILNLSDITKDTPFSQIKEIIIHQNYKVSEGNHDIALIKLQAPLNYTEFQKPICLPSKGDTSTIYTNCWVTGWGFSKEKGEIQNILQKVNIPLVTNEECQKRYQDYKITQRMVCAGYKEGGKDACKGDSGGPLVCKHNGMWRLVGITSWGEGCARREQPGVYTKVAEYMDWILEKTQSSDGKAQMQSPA
T1 sequence (P03952 20-390 partner limits assumed): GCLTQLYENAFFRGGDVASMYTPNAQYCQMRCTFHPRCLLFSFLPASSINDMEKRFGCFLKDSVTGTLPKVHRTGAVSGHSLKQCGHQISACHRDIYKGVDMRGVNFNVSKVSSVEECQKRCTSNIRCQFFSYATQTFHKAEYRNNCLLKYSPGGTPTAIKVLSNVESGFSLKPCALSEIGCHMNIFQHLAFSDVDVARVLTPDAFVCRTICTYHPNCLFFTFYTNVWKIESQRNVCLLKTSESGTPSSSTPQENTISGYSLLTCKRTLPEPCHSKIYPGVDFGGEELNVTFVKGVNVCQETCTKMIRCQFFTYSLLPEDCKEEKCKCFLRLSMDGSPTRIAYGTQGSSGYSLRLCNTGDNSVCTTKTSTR
Kind of assay: In vitro enzyme inhibition of human plasma kallikrein (Pro-Phe-Arg-AMC cleavage). Format: biochemical. Particulars: human Plasma Kallikrein (Abcam), substrate Pro-Phe-Arg-AMC, 37° C., Tris-HCl pH 7.5; read-out: hPK IC50. The protocol:
The ability of the compounds disclosed herein to inhibit human plasma kallikrein activity was quantified according to the procedures below.
A 10 mM solution of the test compound was made in DMSO. This solution was serially diluted 1:5 in DMSO to yield 2000, 400, 80, 16, 3.2, 0.64, 0.128, 0.0256 and […] compound test solutions. A control tube containing only DMSO is included. 16 μL of each compound test solution was combined with 384 μL of assay buffer (50 mM Tris-HCl pH 7.5, 150 mM NaCl, 0.01% Triton X-100) to yield a “4× test compound buffer stock”. Separately, a 40 nM solution of human Plasma Kallikrein (Abcam) and a 93.6 μM solution Pro-Phe-Arg-AMC (Bachem) were made using assay buffer. These solutions are hereby referred to as 4× hPK and 2×PFR-AMC, respectively.
60 μL of each 4× test compound buffer stock was combined with 60 μL of 4× hPK to yield 120 μL of “2× test compound buffer stock/2× hPK”. 50 μL was removed from this mixture and placed into duplicate wells on a Microfluor 1Black U-bottom microtiter plate (Thermo Scientific). This plate was incubated for 5 minutes at 37° C. To each well, 50 μL of pre-warmed 2×PFR-AMC was added to start the enzymatic reaction. Cleavage of PFR-AMC was monitored in a Biotek Synergy H4 reader set at 37° C. Readings are taken every 43 seconds for 1 hour. The highest mean velocity over 20 reads (˜15 minutes) is used to calculate the IC50. The IC50 is calculated using the Gen5 (Biotek Instruments).
The ability of the compounds in Table 4 to inhibit human plasma kallikrein activity was determined.
On to `Clc1cnc2ccc(Cc3ccc4onc(NCc5cnc6[nH]cc(Cl)c6c5)c4c3)cc2c1` [Example 1, N-((3-chloro-1H-pyrrolo[2,3-b]pyridin-5-yl)methyl)-5-((3-chloroquinolin-6-yl)methyl)benzo[d]isoxazol-3-amine], for which the IC50 is 100 to 1000 nM.

Take `Cn1nc(NCc2cnc3[nH]cc(Cl)c3c2)c2cc(Cc3ccc4ncc(Cl)cc4c3)ccc21` [Example 2, N-((3-chloro-1H-pyrrolo[2,3-b]pyridin-5-yl)methyl)-5-((3-chloroquinolin-6-yl)methyl)-1-methyl-1H-indazol-3-amine]: the IC50 fell in the range of 100 to 1000 nM.

In the case of `Clc1cnc2ccc(Cc3ccc4[nH]nc(NCc5cnc6[nH]cc(Cl)c6c5)c4c3)cc2c1` [Example 3, N-((3-chloro-1H-pyrrolo[2,3-b]pyridin-5-yl)methyl)-5-((3-chloroquinolin-6-yl)methyl)-1H-indazol-3-amine], the 50% inhibitory concentration (IC50) fell in the range of 100 to 1000 nM.

Consider `Cc1cc(N)nc(C)c1CNc1nccc2nc(Cc3ccc4ncc(Cl)cc4c3)[nH]c12` [Example 4, N-((6-amino-2,4-dimethylpyridin-3-yl)methyl)-2-((3-chloroquinolin-6-yl)methyl)-3H-imidazo[4,5-c]pyridin-4-amine], for which the IC50 lay within 1000 to 10000 nM.

Turning to `Fc1cc2[nH]cc(Cl)c2cc1CNc1ncnc2nc(Cc3ccc4ncc(Cl)cc4c3)[nH]c12` [Example 5], the IC50 is not above 100 nM.

On to `Clc1cnc2ccc(Cc3nc4ncnc(NCc5n[nH]c6ccc(Cl)cc56)c4[nH]3)cc2c1` [Example 6, N-((5-chloro-1H-indazol-3-yl)methyl)-8-((3-chloroquinolin-6-yl)methyl)-7H-purin-6-amine], for which the IC50 was not above 100 nM.

`Fc1c(CNc2ncnc3nc(Cc4ccc5ncc(Cl)cc5c4)[nH]c23)ccc2[nH]cc(Cl)c12` [Example 7, N-((3-chloro-4-fluoro-1H-indol-5-yl)methyl)-8-((3-chloroquinolin-6-yl)methyl)-7H-purin-6-amine]: the IC50 was not above 100 nM.

With `Clc1cnc2ccc(Cc3nc4ncnc(NCc5cnc6[nH]cc(Cl)c6c5)c4[nH]3)cc2c1` [Example 8, N-((3-chloro-1H-pyrrolo[2,3-b]pyridin-5-yl)methyl)-8-((3-chloroquinolin-6-yl)methyl)-7H-purin-6-amine], the IC50 was not above 100 nM.

`Cc1cc(N)nc(C)c1CNc1ncnc2cn(Cc3ccc4ncc(Cl)cc4c3)nc12` [Example 9, N-((6-amino-2,4-dimethylpyridin-3-yl)methyl)-2-((3-chloroquinolin-6-yl)methyl)-2H-pyrazolo[4,3-d]pyrimidin-7-amine]: the IC50 was not above 100 nM.

`Cc1cc(N)nc(C)c1CNc1ncnc2nc(Cc3ccc4ncc(C(F)(F)F)cc4c3)[nH]c12` [Example 10, N-((6-amino-2,4-dimethylpyridin-3-yl)methyl)-8-((3-(trifluoromethyl)quinolin-6-yl)methyl)-7H-purin-6-amine]: the IC50 is not above 100 nM.

Regarding `Fc1cc2[nH]cc(Cl)c2cc1CNc1ncnc2nc(Cc3ccc4ncc(C(F)(F)F)cc4c3)[nH]c12` [Example 11, N-((3-chloro-6-fluoro-1H-indol-5-yl)methyl)-8-((3-(trifluoromethyl)quinolin-6-yl)methyl)-7H-purin-6-amine], the IC50 was not above 100 nM.

With `FC(F)(F)c1cnc2ccc(Cc3nc4ncnc(NCc5n[nH]c6ccc(Cl)cc56)c4[nH]3)cc2c1` [Example 12, N-((5-chloro-1H-indazol-3-yl)methyl)-8-((3-(trifluoromethyl)quinolin-6-yl)methyl)-7H-purin-6-amine], the IC50 was not above 100 nM.

Regarding `Fc1c(CNc2ncnc3nc(Cc4ccc5ncc(C(F)(F)F)cc5c4)[nH]c23)ccc2[nH]cc(Cl)c12` [Example 13, N-((3-chloro-4-fluoro-1H-indol-5-yl)methyl)-8-((3-(trifluoromethyl)quinolin-6-yl)methyl)-7H-purin-6-amine], the IC50 is not above 100 nM.

For the molecule `Nc1nccc2cc(CNc3ncnc4nc(Cc5ccc6ncc(C(F)(F)F)cc6c5)[nH]c34)ccc12` [Example 14, 6-(((8-((3-(trifluoromethyl)quinolin-6-yl)methyl)-7H-purin-6-yl)amino)methyl)isoquinolin-1-amine], the IC50 is not above 100 nM.

In the case of `FC(F)(F)c1cnc2ccc(Cc3nc4ncnc(NCc5cnc6[nH]cc(Cl)c6c5)c4[nH]3)cc2c1` [Example 15, N-((3-chloro-1H-pyrrolo[2,3-b]pyridin-5-yl)methyl)-8-((3-(trifluoromethyl)quinolin-6-yl)methyl)-7H-purin-6-amine], the 50% inhibitory concentration (IC50) was in the range of 100 to 1000 nM.

For `Clc1c[nH]c2ncc(CNc3ncnc4nc(Cc5ccc6ncccc6c5)[nH]c34)cc12` [Example 17, N-((3-chloro-1H-pyrrolo[2,3-b]pyridin-5-yl)methyl)-8-(quinolin-6-ylmethyl)-7H-purin-6-amine], the IC50 fell in the range of 100 to 1000 nM.

Turning to `Cc1cc(N)nc(C)c1CNc1ncnc2nc(Cc3ccc4ncc(Cl)cc4c3)[nH]c12` [Example 19, N-((6-amino-2,4-dimethylpyridin-3-yl)methyl)-8-((3-chloroquinolin-6-yl)methyl)-7H-purin-6-amine], the IC50 is not above 100 nM.

Regarding `Clc1cnc2ccc(Cc3cc4c(NCc5cnc6[nH]cc(Cl)c6c5)n[nH]c4cn3)cc2c1` [Example 20, N-((3-chloro-1H-pyrrolo[2,3-b]pyridin-5-yl)methyl)-5-((3-chloroquinolin-6-yl)methyl)-1H-pyrazolo[3,4-c]pyridin-3-amine], the IC50 was in the range of 100 to 1000 nM.

In the case of `O=C(NCc1cc2c(Cl)c[nH]c2cc1F)c1ccc2c(c1)C(c1ccc3ncc(Cl)cc3c1)OC2` (stereo not shown) [Example 21, N-((3-chloro-6-fluoro-1H-indol-5-yl)methyl)-3-(3-chloroquinolin-6-yl)-1,3-dihydroisobenzofuran-5-carboxamide], the IC50 lay within 100 to 1000 nM.
